Here are results for eleven molecules from patent US10626144B2, “Peptide derivatives and uses thereof” (Nosopharm, priority 2014, dated 2020).

Common to all, as to test: MIC, broth microdilution (CLSI), reference strain
Holding throughout (conditions): CAMHB
On the technique in general: Broth dilution looks for growth in wells or tubes with falling amounts of substance.

Assay [1] deals with Acinetobacter baumannii ATCC 19606.
The subject of assay [2] is Pseudomonas aeruginosa ATCC 27853.
Assay [3] deals with Staphylococcus aureus ATCC 13709.
Assay [4] concerns Escherichia coli ATCC 25922.

SMILES strings stand for the structures. Numbered stars: 1 amine (or outer) side, 2 acyl side, 3 side chain; on linkers, the order of the positions; unused ones are H or OH. Square brackets hold non-standard residues; d marks the D form. Peptide text beside a SMILES is read from it. * marks the point of attachment. Pro(trans-4-F) = O=C(O)[C@@H]1C[C@@H](F)CN1; Abu(4,4,4-F3) = N[C@@H](CC(F)(F)F)C(=O)O; Dab(3S-OH) = NC[C@H](O)[C@H](N)C(=O)O; X4 = N=C(N)NCC/C=C(/N[*:1])C(=O)[*:2]; ΔZArg = N=C(N)NCC/C=C(\N)C(=O)O; dOrn = NCCC[C@@H](N)C(=O)O; Dab = NCC[C@H](N)C(=O)O; NH(CH2)5NH2 = NCCCCCN*; NH(CH2)4NH2 = NCCCCN*

With `N=C(N)NCC/C=C(\NC(=O)[C@H](CCCCN)NC(=O)[C@H](CC(F)(F)F)NC(=O)[C@@H]1CCCN1C(=O)[C@@H](CCCN)NC(=O)CNC(=O)[C@H](CCN)NC(=O)[C@@H](NC(=O)[C@@H](N)CCCCN)[C@@H](O)CN)C(=O)O` [21.11] (H-K[Dab(3S-OH)][Dab]G[dOrn]P[Abu(4,4,4-F3)]K[ΔZArg]-OH), the “Ab: MIC Acinetobacter baumannii ATCC 19606” value in assay [1] is reported as “− (>32 μg/mL)”. In addition, the “Pa: MIC Pseudomonas aeruginosa ATCC 27853” value in assay [2] was “− (>32 μg/mL)”. Moreover, the “Sa: MIC Staphylococcus aureus ATCC 13709” value in assay [3] is “++ (≤8 μg/mL)”. Also, the “Ec: MIC Escherichia coli ATCC 25922” value in assay [4] is recorded as “++ (≤8 μg/mL)”.

For `N=C(N)NCC/C=C(\NC(=O)[C@H](CCCCN)NC(=O)[C@H](Cc1c[nH]c2ccccc12)NC(=O)[C@@H]1CCCN1C(=O)[C@@H](CCCN)NC(=O)CNC(=O)[C@H](CCN)NC(=O)[C@@H](NC(=O)[C@@H](N)CCCCN)[C@@H](O)CN)C(=O)O` [21.12] (H-K[Dab(3S-OH)][Dab]G[dOrn]PWK[ΔZArg]-OH), the “Ab: MIC Acinetobacter baumannii ATCC 19606” value in assay [1] is listed as “− (>32 μg/mL)”. Moreover, the “Pa: MIC Pseudomonas aeruginosa ATCC 27853” value in assay [2] was “− (>32 μg/mL)”. Also, the “Sa: MIC Staphylococcus aureus ATCC 13709” value in assay [3] is given as “++ (≤8 μg/mL)”. Further, the “Ec: MIC Escherichia coli ATCC 25922” value in assay [4] is “++ (≤8 μg/mL)”.

Regarding `N=C(N)NCC/C=C(\NC(=O)[C@H](CCCCN)NC(=O)[C@H](Cc1cnc[nH]1)NC(=O)[C@@H]1CCCN1C(=O)[C@@H](CCCN)NC(=O)CNC(=O)[C@@H](NC(=O)[C@@H](NC(=O)[C@@H](N)CCCCN)[C@@H](O)CN)[C@@H](O)CN)C(=O)N[C@H](CCCCN)C(=O)NCCCCN` [22.1] (H-K[Dab(3S-OH)][Dab(3S-OH)]G[dOrn]PHK[ΔZArg][dK]-{NH(CH2)4NH2}), the “Ab: MIC Acinetobacter baumannii ATCC 19606” value in assay [1] is listed as “+ (≤32 μg/mL)”. Moreover, in assay [2], the “Pa: MIC Pseudomonas aeruginosa ATCC 27853” value was “++ (≤8 μg/mL)”. In addition, the “Sa: MIC Staphylococcus aureus ATCC 13709” value in assay [3] was “++ (≤8 μg/mL)”. Moreover, the “Ec: MIC Escherichia coli ATCC 25922” value in assay [4] was “++ (≤8 μg/mL)”.

Consider `N=C(N)NCC/C=C(\NC(=O)[C@H](CCCCN)NC(=O)[C@H](Cc1cnc[nH]1)NC(=O)[C@@H]1CCCN1C(=O)[C@@H](CCCN)NC(=O)CNC(=O)[C@@H](NC(=O)[C@@H](NC(=O)[C@@H](N)CCCCN)[C@@H](O)CN)[C@@H](O)CN)C(=O)NCCCCCN` [22.2] (H-K[Dab(3S-OH)][Dab(3S-OH)]G[dOrn]PHK[ΔZArg]-{NH(CH2)5NH2}), for which the “Ab: MIC Acinetobacter baumannii ATCC 19606” value in assay [1] was “− (>32 μg/mL)”. Besides, in assay [2], the “Pa: MIC Pseudomonas aeruginosa ATCC 27853” value is reported as “+ (≤32 μg/mL)”. Further, the “Sa: MIC Staphylococcus aureus ATCC 13709” value in assay [3] was “++ (≤8 μg/mL)”. For the same molecule, the “Ec: MIC Escherichia coli ATCC 25922” value in assay [4] was “++ (≤8 μg/mL)”.

As to `N=C(N)NCC/C=C(\NC(=O)[C@H](CCCCN)NC(=O)[C@H](Cc1cnc[nH]1)NC(=O)[C@@H]1CCCN1C(=O)[C@@H](CCCN)NC(=O)CNC(=O)[C@@H](NC(=O)[C@@H](NC(=O)[C@H](N)CCCCN)[C@@H](O)CN)[C@@H](O)CN)C(=O)N[C@@H](CCCCN)C(=O)NCCCCN` [22.6] (H-[dK][Dab(3S-OH)][Dab(3S-OH)]G[dOrn]PHK[ΔZArg]K-{NH(CH2)4NH2}), in assay [1], the “Ab: MIC Acinetobacter baumannii ATCC 19606” value is listed as “− (>32 μg/mL)”. Also, in assay [2], the “Pa: MIC Pseudomonas aeruginosa ATCC 27853” value was “− (>32 μg/mL)”. In assay [3], the “Sa: MIC Staphylococcus aureus ATCC 13709” value is listed as “++ (≤8 μg/mL)”. In addition, in assay [4], the “Ec: MIC Escherichia coli ATCC 25922” value was “+ (≤32 μg/mL)”.

`N=C(N)NCC/C=C(/NC(=O)[C@H](CCCCN)NC(=O)[C@H](Cc1cnc[nH]1)NC(=O)[C@@H]1CCCN1C(=O)[C@@H](CCCN)NC(=O)CNC(=O)[C@@H](NC(=O)[C@@H](NC(=O)[C@@H](N)CCCCN)[C@@H](O)CN)[C@@H](O)CN)C(=O)N[C@@H](CCCCN)C(=O)NCCCCN` [22.7] (H-K[Dab(3S-OH)][Dab(3S-OH)]G[dOrn]PHK[X4]K-{NH(CH2)4NH2}): the “Ab: MIC Acinetobacter baumannii ATCC 19606” value in assay [1] is listed as “+ (≤32 μg/mL)”. Also, in assay [2], the “Pa: MIC Pseudomonas aeruginosa ATCC 27853” value is reported as “++ (≤8 μg/mL)”. The “Sa: MIC Staphylococcus aureus ATCC 13709” value in assay [3] is reported as “++ (≤8 μg/mL)”. The “Ec: MIC Escherichia coli ATCC 25922” value in assay [4] is “++ (≤8 μg/mL)”.

With `N=C(N)NCC/C=C(\NC(=O)[C@H](CCCCN)NC(=O)[C@H](Cc1cnc[nH]1)NC(=O)[C@@H]1CCCN1C(=O)[C@@H](CCCN)NC(=O)CNC(=O)[C@@H](NC(=O)[C@@H](NC(=O)[C@@H](N)CCCCN)[C@@H](O)CN)[C@@H](O)CN)C(=O)N[C@@H](CCCCN)C(N)=O` [22.8] (H-K[Dab(3S-OH)][Dab(3S-OH)]G[dOrn]PHK[ΔZArg]K-NH2), the “Ab: MIC Acinetobacter baumannii ATCC 19606” value in assay [1] is on record as “+ (≤32 μg/mL)”. The “Pa: MIC Pseudomonas aeruginosa ATCC 27853” value in assay [2] is recorded as “++ (≤8 μg/mL)”. Besides, in assay [3], the “Sa: MIC Staphylococcus aureus ATCC 13709” value is “++ (≤8 μg/mL)”. Moreover, in assay [4], the “Ec: MIC Escherichia coli ATCC 25922” value is reported as “++ (≤8 μg/mL)”.

`C[C@H](NC(=O)/C(=C/CCNC(=N)N)NC(=O)[C@H](CCCCN)NC(=O)[C@H](Cc1cnc[nH]1)NC(=O)[C@@H]1CCCN1C(=O)[C@@H](CCCN)NC(=O)CNC(=O)[C@@H](NC(=O)[C@@H](NC(=O)[C@@H](N)CCCCN)[C@@H](O)CN)[C@@H](O)CN)C(=O)NCCCCN` [22.10] (H-K[Dab(3S-OH)][Dab(3S-OH)]G[dOrn]PHK[ΔZArg]A-{NH(CH2)4NH2}): in assay [1], the “Ab: MIC Acinetobacter baumannii ATCC 19606” value is recorded as “− (>32 μg/mL)”. For the same molecule, in assay [2], the “Pa: MIC Pseudomonas aeruginosa ATCC 27853” value is reported as “+ (≤32 μg/mL)”. Further, the “Sa: MIC Staphylococcus aureus ATCC 13709” value in assay [3] is “++ (≤8 μg/mL)”. For the same molecule, the “Ec: MIC Escherichia coli ATCC 25922” value in assay [4] was “++ (≤8 μg/mL)”.

On to `N=C(N)NCC/C=C(\NC(=O)[C@@H](CCCCN)NC(=O)[C@H](Cc1cnc[nH]1)NC(=O)[C@@H]1CCCN1C(=O)[C@@H](CCCN)NC(=O)CNC(=O)[C@@H](NC(=O)[C@@H](NC(=O)[C@@H](N)CCCCN)[C@@H](O)CN)[C@@H](O)CN)C(=O)N[C@@H](CCCCN)C(=O)NCCCCN` [22.11] (H-K[Dab(3S-OH)][Dab(3S-OH)]G[dOrn]PH[dK][ΔZArg]K-{NH(CH2)4NH2}), for which the “Ab: MIC Acinetobacter baumannii ATCC 19606” value in assay [1] is given as “− (>32 μg/mL)”. Also, in assay [2], the “Pa: MIC Pseudomonas aeruginosa ATCC 27853” value is listed as “+ (≤32 μg/mL)”. Also, the “Sa: MIC Staphylococcus aureus ATCC 13709” value in assay [3] was “++ (≤8 μg/mL)”. In addition, the “Ec: MIC Escherichia coli ATCC 25922” value in assay [4] is “++ (≤8 μg/mL)”.

`N=C(N)NCC/C=C(\NC(=O)[C@H](CCCCN)NC(=O)[C@H](Cc1c[nH]cn1)NC(=O)[C@@H]1CCCN1C(=O)[C@@H](CCCN)NC(=O)CNC(=O)[C@@H](NC(=O)[C@@H](NC(=O)[C@@H](N)CCCCN)[C@@H](O)CN)[C@@H](O)CN)C(=O)N[C@@H](CCCCN)C(=O)NCCCCCN` [22.12] (H-K[Dab(3S-OH)][Dab(3S-OH)]G[dOrn]PHK[ΔZArg]K-{NH(CH2)5NH2}; C-terminus assumed): in assay [1], the “Ab: MIC Acinetobacter baumannii ATCC 19606” value is “− (>32 μg/mL)”. Also, the “Pa: MIC Pseudomonas aeruginosa ATCC 27853” value in assay [2] is recorded as “− (>32 μg/mL)”. Moreover, the “Sa: MIC Staphylococcus aureus ATCC 13709” value in assay [3] is on record as “++ (≤8 μg/mL)”. For the same molecule, the “Ec: MIC Escherichia coli ATCC 25922” value in assay [4] is “++ (≤8 μg/mL)”.

For the molecule `N=C(N)NCC/C=C(\NC(=O)[C@H](CCCCN)NC(=O)[C@H](Cc1cnc[nH]1)NC(=O)[C@@H]1C[C@@H](F)CN1C(=O)[C@@H](CCCN)NC(=O)CNC(=O)[C@@H](NC(=O)[C@@H](NC(=O)[C@@H](N)CCCCN)[C@@H](O)CN)[C@@H](O)CN)C(=O)N[C@@H](CCCCN)C(=O)NCCCCN` [22.13] (H-K[Dab(3S-OH)][Dab(3S-OH)]G[dOrn][Pro(trans-4-F)]HK[ΔZArg]K-{NH(CH2)4NH2}), in assay [1], the “Ab: MIC Acinetobacter baumannii ATCC 19606” value was “− (>32 μg/mL)”. For the same molecule, the “Pa: MIC Pseudomonas aeruginosa ATCC 27853” value in assay [2] is “++ (≤8 μg/mL)”. Further, the “Sa: MIC Staphylococcus aureus ATCC 13709” value in assay [3] is listed as “++ (≤8 μg/mL)”. Further, in assay [4], the “Ec: MIC Escherichia coli ATCC 25922” value was “+ (≤32 μg/mL)”.
